Measurements: PMC5706701, “Development of a homogenous high-throughput assay for inositol hexakisphosphate kinase 1 activity” (PLoS ONE, 2017)
Counter-ions that a name gives are not always drawn. Like-named read-outs stand apart in the source and are kept apart here.

Molecular target: T1, Human IP6K1 (Homo sapiens, UniProt Q92551)
T1 construct: GST (N, cleaved yes); made in house; host or cells: C43 E. coli, pGEX-6P-2
Experiment: IP6K1 high-throughput screen of the Sigma LOPAC (ADP-Glo Max, single point);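 note: final compound concentration 10µM in 5% DMSO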
Type: biochemical

[1] = Sigma LOPAC single-point screen, ADP-Glo Max raw signal per well
[2] = Sigma LOPAC single-point screen, Z-score from plate average and StDev
[3] = LOPAC single-point screen, ADP-Glo Max raw signal per well
[4] = LOPAC single-point screen, Z-score against plate average and StDev
[5] = LOPAC single-point screen, Z-score from raw signal with plate average and StDev
[6] = LOPAC single-point screen, ADP-Glo Max luminescence raw signal per well
[7] = LOPAC single-point screen, Z-score relative to plate average and StDev

T1 sequence (Q92551 whole entry): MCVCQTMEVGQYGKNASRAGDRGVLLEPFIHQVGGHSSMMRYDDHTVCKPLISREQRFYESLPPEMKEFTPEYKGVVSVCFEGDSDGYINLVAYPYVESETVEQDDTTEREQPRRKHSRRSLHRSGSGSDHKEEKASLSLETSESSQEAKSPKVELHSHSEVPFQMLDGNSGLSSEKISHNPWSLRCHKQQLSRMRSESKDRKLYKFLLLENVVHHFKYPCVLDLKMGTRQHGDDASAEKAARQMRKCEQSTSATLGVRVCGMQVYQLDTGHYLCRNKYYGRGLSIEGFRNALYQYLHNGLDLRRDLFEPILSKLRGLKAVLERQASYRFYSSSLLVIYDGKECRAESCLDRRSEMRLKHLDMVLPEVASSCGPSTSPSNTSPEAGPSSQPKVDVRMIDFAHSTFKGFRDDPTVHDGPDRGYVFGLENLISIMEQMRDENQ

Row | SMILES | Raw Signal [1] | Z-score [2] | Raw Signal [3] | Z-score [4] | further results
1 | CCCn1c(=O)c2[nH]c(-c3ccc(OCC(=O)NCCN)cc3)nc2n(CCC)c1=O [Xanthine amine congener] | 61437 | 1.052 |  |  | 
2 | Br.CCCN(CCC)[C@@H]1CCc2cccc(O)c2C1 [R-(+)-8-Hydroxy-DPAT hydrobromide] | 58179 | 0.6117 |  |  | 
3 | Cl.Nc1c2c(nc3ccccc13)CCCC2 |  |  |  |  | Raw Signal: 49916; Z-score: -1.409
4 | CCOC(=O)[C@]12CC1/C(=N\O)c1ccccc1O2 (mixture of isomers) [CPCCOEt] |  |  | 59801 | 0.3325 | 
5 | Cc1cc(NC(=O)Nc2ccc3c(ccn3C)c2)sn1 [SB 204741] |  |  | 55947 |  | Z-score [5]: -0.3463
6 | Cc1c(C)c2c(c(C)c1O)CCC(C)(CN1CCN(c3cc(N4CCCC4)nc(N4CCCC4)n3)CC1)O2.Cl.Cl (stereo not drawn) [U-83836 dihydrochloride] |  |  |  |  | Raw Signal [6]: 52883; Z-score [7]: -0.6102
7 | N[C@@H](Cc1ccc(F)cc1)C(=O)O [p-Fluoro-L-phenylalanine] |  |  | 55466 | 0.06072 | 
8 | Oc1cc2c(cc1O)[C@H]1c3ccccc3CN[C@@H]1CC2 (racemic) [Dihydrexidine hydrochloride] |  |  | 53851 |  | Z-score [5]: -0.2673
9 | COc1cc2c(c(OC)c1OC)-c1ccc(OC)c(=O)cc1[C@@H](NC(C)=O)CC2 [Colchicine] |  |  | 58343 | 0.07572 | 
10 | CCN1CCC[C@H]1CNC(=O)c1c(O)c(Cl)cc(Cl)c1OC.O=C(O)C(O)C(O)C(=O)O (racemic) [S(+)-Raclopride L-tartrate] | 59305 | 0.6375 |  |  | 
11 | C[C@@H](NC(=O)/C(C#N)=C/c1ccc(O)c(O)c1)c1ccccc1 [Tyrphostin AG 527] |  |  | 54153 |  | Z-score [5]: -0.3635
12 | Cl.O=C(O)C1CCCN(CCC=C(c2ccccc2)c2ccccc2)C1 (stereo not drawn) [SKF 89976A hydrochloride] |  |  | 57225 | 0.2334 | 
13 | C[N+](C)(C)CCOP(=O)([O-])OP(=O)([O-])OC[C@H]1O[C@@H](n2ccc(N)nc2=O)[C@H](O)[C@@H]1O.[Na+] [Citicoline sodium] | 63989 | 1.07 |  |  | 
14 | C=C/C(C)=C/[C@@]1(C)SC(=O)C(C)=C1O [Thiolactomycin] |  |  | 51778 |  | Z-score [5]: -0.4395
15 | CC(C)NC[C@@H](O)COc1ccc(CC(N)=O)cc1 [R(+)-Atenolol] |  |  |  |  | Raw Signal [6]: 54301; Z-score [7]: -0.6362
16 | COc1cc2c(cc1C(F)(F)F)N(C(=O)Nc1cc(F)cc(-c3cccnc3)c1)CC2 [SB 228357] | 58844 | 0.7468 |  |  | 
17 | c1ccc(-c2ccccn2)nc1 [2,2 -Bipyridyl] |  |  | 56711 | 0.3136 | 
18 | NS(=O)(=O)c1cc2c(cc1Cl)NCNS2(=O)=O [Hydrochlorothiazide] |  |  | 56632 | 0.2975 | 
19 | Br.CN1CCc2cc(O)c(O)cc2C(c2ccccc2)C1 (stereo not drawn) [SKF 75670 hydrobromide] |  |  | 56113 | 0.01733 | 
20 | CN1C2CCC1CC(NC(=O)c1nn(C)c3ccccc13)C2.O=C(O)/C=C\C(=O)O (stereo not drawn) [LY-278,584 maleate] |  |  |  |  | Raw Signal [6]: 49124; Z-score [7]: -0.8854
21 | COc1ccc(CCN(C)CCCC(C#N)(c2ccc(OC)c(OC)c2)C(C)C)cc1OC.Cl (racemic) [(±)-Verapamil hydrochloride] |  |  |  |  | Raw Signal [6]: 63315; Z-score (LOPAC single-point screen, Z-score from plate average and StDev): 1.417
22 | NC(=O)C(=O)O [Sodium Oxamate] |  |  | 56283 | 0.3175 | 
23 | CCOC(=O)C1=C[C@]2(CC)CCCN3CCc4c(n1c1ccccc41)[C@@H]32 [Vinpocetine] | 59958 | 0.7643 |  |  | 
24 | C1CCc2nnnn2CC1 [Pentylenetetrazole] | 57450 | 0.5136 |  |  | 
25 | O=C(O)/C=C\C(=O)O.O=C(O)/C=C\C(=O)O.c1ccc2nc(N3CCNCC3)ccc2c1 [Quipazine dimaleate] |  |  | 57228 | 0.234 | 
26 | O=C(O)C1CCCNC1 (racemic) [(±)-Nipecotic acid] | 63719 | 1.023 |  |  | 
27 | C[N+]1(CCCCC[N+]2(C)CCCC2)CCCC1.O=C([O-])C(O)C(O)C(=O)O.O=C([O-])C(O)C(O)C(=O)O [Pentolinium di[L(+)-tartrate]] | 60160 | 0.9689 |  |  | 
28 | CC(=O)C(C)=O [2,3-Butanedione] |  |  | 53441 |  | Z-score [5]: -0.3505
29 | c1ccc2c(c1)CCCC2C1=NCCN1 (stereo not drawn) [Tetrahydrozoline hydrochloride] |  |  | 57605 | 0.3072 | 
30 | CN1CC[C@@]2(C)c3cc(O)ccc3N(C)[C@@H]12.O=C(O)/C=C/C(=O)O [(-)-Eseroline fumarate] | 57638 | 0.5018 |  |  | 
